Experimental data as given in patent publication US20150105252A1, “SUBSTITUTED PYRAZOLES AS HERBICIDES” (E I DU PONT DE NEMOURS AND COMPANY, priority 2013, published 2015).

Columns and labels:
[1] = test system: velvetleaf; experiment: Test A postemergence; type: in vivo, Abutilon theophrasti; conditions: Postemergence
Method in brief: (§1)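 Both timings tested concurrently in loam/sand soil: preemergence by directed soil spray, postemergence on plants of 2–10 cm at the one- to two-leaf stage. Greenhouse holding period was approximately 10 days before visual injury assessment (0–100, 0 = no effect).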

[2] = test system: barnyardgrass; experiment: Test B flood; type: in vivo, Echinochloa crus-galli; conditions: 250 g ai/ha, visual rating on 0 to 100 scale (0 no effect, 100 complete control), 13 to 15 days
Method in brief: (§2)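 Plants were grown to the 2-leaf stage, then pots were flooded to 3 cm above the soil and compounds were applied directly into the paddy water. Water depth was held for the whole test; after 13 to 15 days in a greenhouse, injury was visually rated against untreated controls (0 = no effect, 100 = complete control).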

[3] = test system: sedge, umbrella; experiment: Test B flood; type: in vivo, Cyperus difformis; conditions: 250 g ai/ha, visual rating on 0 to 100 scale (0 no effect, 100 complete control), 13 to 15 days
Method in brief: as §2

[4] = test system: barnyardgrass; experiment: Test A preemergence; type: in vivo, Echinochloa crus-galli; conditions: preemergence; for Barnyardgrass plant response rating (0 to 100 scale, 0 is no effect, 100 is complete control): 125 g ai/ha, visual injury approx. 10 days after treatment; for Barnyardgrass plant response rating: 500 g ai/ha, visual injury after approx. 10 days, 0 to 100 scale (0 no effect, 100 complete control)
Method in brief: as §1

[5] = test system: corn; experiment: Test A preemergence; type: in vivo, Zea mays; conditions: preemergence; for Corn plant response rating (0 to 100 scale): 125 g ai/ha, visual injury approx. 10 days after treatment; for Corn plant response rating: 500 g ai/ha, visual injury after approx. 10 days, 0 to 100 scale (0 no effect, 100 complete control)
Method in brief: as §1

[6] = test system: barnyardgrass; experiment: Test A postemergence; type: in vivo, Echinochloa crus-galli
Method in brief: as §1

[7] = test system: pigweed; experiment: Test A postemergence; type: in vivo, Amaranthus retroflexus; conditions: Postemergence
Method in brief: as §1

[8] = test system: foxtail, giant; experiment: Test A postemergence; type: in vivo, Setaria faberii
Method in brief: as §1

[9] = test system: corn; experiment: Test A postemergence; type: in vivo, Zea mays
Method in brief: as §1

[10] = test system: wheat; experiment: Test A preemergence; type: in vivo, Triticum aestivum; conditions: preemergence; for Wheat plant response rating (0 to 100 scale): 125 g ai/ha, visual injury approx. 10 days after treatment; for Wheat plant response rating: 500 g ai/ha, visual injury after approx. 10 days, 0 to 100 scale (0 no effect, 100 complete control)
Method in brief: as §1

[11] = test system: crabgrass, large; experiment: Test A preemergence; type: in vivo, Digitaria sanguinalis; conditions: preemergence; for Crabgrass, Large plant response rating (0 to 100 scale): 125 g ai/ha, visual injury approx. 10 days after treatment; for Crabgrass, Large plant response rating: 500 g ai/ha, visual injury after approx. 10 days, 0 to 100 scale (0 no effect, 100 complete control)
Method in brief: as §1

[12] = test system: pigweed; experiment: Test A preemergence; type: in vivo, Amaranthus retroflexus; conditions: preemergence; for Pigweed plant response rating (0 to 100 scale): 125 g ai/ha, visual injury approx. 10 days after treatment; for Pigweed plant response rating: 500 g ai/ha, visual injury after approx. 10 days, 0 to 100 scale (0 no effect, 100 complete control)
Method in brief: as §1

[13] = test system: morningglory; experiment: Test A preemergence; type: in vivo, Ipomoea spp.; conditions: preemergence; for Morningglory plant response rating (0 to 100 scale): 125 g ai/ha, visual injury approx. 10 days after treatment; for Morningglory plant response rating: 500 g ai/ha, visual injury after approx. 10 days, 0 to 100 scale (0 no effect, 100 complete control)
Method in brief: as §1

[14] = test system: ducksalad; experiment: Test B flood; type: in vivo, Heteranthera limosa; conditions: 250 g ai/ha, visual rating on 0 to 100 scale (0 no effect, 100 complete control), 13 to 15 days
Method in brief: as §2

[15] = test system: morningglory; experiment: Test A postemergence; type: in vivo, Ipomoea spp.; conditions: Postemergence
Method in brief: as §1

[16] = test system: foxtail, giant; experiment: Test A preemergence; type: in vivo, Setaria faberii; conditions: preemergence; for Foxtail, Giant plant response rating (0 to 100 scale): 125 g ai/ha, visual injury approx. 10 days after treatment; for Foxtail, Giant plant response rating: 500 g ai/ha, visual injury after approx. 10 days, 0 to 100 scale (0 no effect, 100 complete control)
Method in brief: as §1

[17] = test system: rice; experiment: Test B flood; type: in vivo, Oryza sativa; conditions: 250 g ai/ha, visual rating on 0 to 100 scale (0 no effect, 100 complete control), 13 to 15 days
Method in brief: as §2

[18] = test system: velvetleaf; experiment: Test A preemergence; type: in vivo, Abutilon theophrasti; conditions: preemergence; for Velvetleaf plant response rating (0 to 100 scale): 125 g ai/ha, visual injury approx. 10 days after treatment; for Velvetleaf plant response rating: 500 g ai/ha, visual injury after approx. 10 days, 0 to 100 scale (0 no effect, 100 complete control)
Method in brief: as §1

[19] = test system: crabgrass, large; experiment: Test A postemergence; type: in vivo, Digitaria sanguinalis
Method in brief: as §1

[20] = test system: wheat; experiment: Test A postemergence; type: in vivo, Triticum aestivum; conditions: Postemergence
Method in brief: as §1

[21] = 500 g ai/ha, 0 to 100 scale (0 no effect, 100 complete control)
[22] = Postemergence, 500 g ai/ha, 0 to 100 scale (0 no effect, 100 complete control)
[23] = postemergence, 125 g ai/ha, about 10 days, visual rating on 0 to 100 scale (0 no effect, 100 complete control)
[24] = 125 g ai/ha, 0 to 100 scale, 0 no effect, 100 complete control

Row | Structure (SMILES) | Velvetleaf plant response rating [1, 21] | Plant response rating, Barnyardgrass [2] | Plant response rating, Sedge, Umbrella [3] | Barnyardgrass plant response rating (0 to 100 scale, 0 is no effect, 100 is complete control) [4] | Barnyardgrass plant response rating [4] | Corn plant response rating (0 to 100 scale) [5] | Corn plant response rating [5] | Barnyardgrass plant response rating [6, 22] | Barnyardgrass plant response rating [6, 23] | Pigweed plant response rating [7, 21] | Foxtail, Giant plant response rating [8, 22] | Foxtail, Giant plant response rating [8, 23] | Corn plant response rating [9, 22] | Corn plant response rating [9, 23] | Wheat plant response rating (0 to 100 scale) [10] | Wheat plant response rating [10] | Crabgrass, Large plant response rating (0 to 100 scale) [11] | Crabgrass, Large plant response rating [11] | Pigweed plant response rating (0 to 100 scale) [12] | Pigweed plant response rating [12] | also measured
1 | O=C(NCC(F)(F)F)c1cc(I)n(Cc2cccc(C(F)(F)F)c2)n1 [Compound 181] | 20 | 0 | 40 | 0 | 10 | 0 | 0 | 10 | 10 | 100 | 10 | 0 | 20 | 0 | 0 | 0 | 10 | 60 | 10 | 50 | Morningglory plant response rating (0 to 100 scale) [13]: 0; Morningglory plant response rating [13]: 0; Plant response rating, Ducksalad [14]: 0; Morningglory plant response rating [15, 21]: 80; Foxtail, Giant plant response rating (0 to 100 scale) [16]: 0; Foxtail, Giant plant response rating [16]: 20; Plant response rating, Rice [17]: 20; Velvetleaf plant response rating (0 to 100 scale) [18]: 0; Velvetleaf plant response rating [18]: 0; Crabgrass, Large plant response rating [19, 22]: 10; Crabgrass, Large plant response rating [19, 23]: 10; Wheat plant response rating [20, 21]: 0
2 | CCCNC(=O)c1cc(I)n(Cc2cccc(C(F)(F)F)c2)n1 [Compound 183] | 40 | 0 | 0 | 0 | 10 | 0 | 0 | 20 | 10 | 80 | 20 | 10 | 10 | 0 | 0 | 0 | 10 | 80 | 10 | 50 | Velvetleaf plant response rating [1, 24]: 10; Pigweed plant response rating [7, 24]: 90; Morningglory plant response rating (0 to 100 scale) [13]: 0; Morningglory plant response rating [13]: 0; Plant response rating, Ducksalad [14]: 0; Morningglory plant response rating [15, 24]: 10; Morningglory plant response rating [15, 21]: 90; Foxtail, Giant plant response rating (0 to 100 scale) [16]: 10; Foxtail, Giant plant response rating [16]: 50; Plant response rating, Rice [17]: 0; Velvetleaf plant response rating (0 to 100 scale) [18]: 0; Velvetleaf plant response rating [18]: 0; Crabgrass, Large plant response rating [19, 22]: 20; Crabgrass, Large plant response rating [19, 23]: 10; Wheat plant response rating [20, 24]: 0; Wheat plant response rating [20, 21]: 0
3 | CCCCc1cc(C(=O)NCCC)nn1Cc1ccnc(C(F)(F)F)c1 [Compound 190] | 80 | 0 | 45 | 0 | 60 | 0 | 0 | 60 | 10 | 90 | 60 | 20 | 40 | 10 | 0 | 0 | 80 | 100 | 100 | 100 | Velvetleaf plant response rating [1, 24]: 100; Pigweed plant response rating [7, 24]: 100; Morningglory plant response rating (0 to 100 scale) [13]: 0; Morningglory plant response rating [13]: 30; Plant response rating, Ducksalad [14]: 0; Morningglory plant response rating [15, 24]: 100; Morningglory plant response rating [15, 21]: 90; Foxtail, Giant plant response rating (0 to 100 scale) [16]: 20; Foxtail, Giant plant response rating [16]: 90; Plant response rating, Rice [17]: 0; Velvetleaf plant response rating (0 to 100 scale) [18]: 0; Velvetleaf plant response rating [18]: 20; Crabgrass, Large plant response rating [19, 22]: 70; Crabgrass, Large plant response rating [19, 23]: 20; Wheat plant response rating [20, 24]: 80; Wheat plant response rating [20, 21]: 10
4 | CCCNC(=O)c1cc(C)n(Cc2ccnc(C(F)(F)F)c2)n1 [Compound 191] | 100 | 0 | 55 | 20 | 100 | 10 | 60 | 100 | 70 | 100 | 90 | 80 | 100 | 60 | 0 | 70 | 100 | 100 | 100 | 100 | Velvetleaf plant response rating [1, 24]: 90; Pigweed plant response rating [7, 24]: 100; Morningglory plant response rating (0 to 100 scale) [13]: 90; Morningglory plant response rating [13]: 100; Plant response rating, Ducksalad [14]: 80; Morningglory plant response rating [15, 24]: 90; Morningglory plant response rating [15, 21]: 90; Foxtail, Giant plant response rating (0 to 100 scale) [16]: 100; Foxtail, Giant plant response rating [16]: 100; Plant response rating, Rice [17]: 0; Velvetleaf plant response rating (0 to 100 scale) [18]: 10; Velvetleaf plant response rating [18]: 100; Crabgrass, Large plant response rating [19, 22]: 90; Crabgrass, Large plant response rating [19, 23]: 80; Wheat plant response rating [20, 24]: 80; Wheat plant response rating [20, 21]: 60
